Where two headings read alike, the source gives them in different places.
Target: LC3B (Homo sapiens, UniProt Q9GZQ8)
Test: Fluorescence Polarization (FP) Assay: displacement of FITC-labeled peptide from GST-LC3B
Format: binding
Procedure: The compounds of the present invention for regulating the autophagy-related protein LC3B were tested by Fluorescence Polarization (FP) Assay.
Fluorescence Polarization (FP) Assay Test

[1] = Fluorescence Polarization assay, GST-LC3B 180 nM, FITC-labeled peptide 18 nM, 25° C., read-out: IC50

Compound | IC50 [1] | IC50
CC1(C)OC(=O)C(=CNCCN2CCN(CCO)CC2)C(=O)O1 [Compound 1, 5-(((2-(4-(2-hydroxyethyl)piperazin-1-yl)ethyl)amino)methylene)-2,2-dimethyl-1,3-dioxane-4,6-dione] | 100 to 1000 µM | –
NC=C1C(=O)CC(c2ccccc2)CC1=O (stereo not drawn) [Compound 2, 2-(aminomethylene)-5-phenylcyclohexane-1,3-dione] | 3 to 15 µM | –
CSC=C1C(=O)CC(c2ccccc2)CC1=O (stereo not drawn) [Compound 4A, 2-((methylthio)methylene)-5-phenylcyclohexane-1,3-dione] | 3 to 15 µM | –
O=C1CC(c2ccccc2)CC(=O)C1=CNc1cccnc1 (stereo not drawn) [Compound 7, 5-phenyl-2-((pyridin-3-ylamino)methylene) cyclohexane-1,3-dione] | 3 to 15 µM | –
O=C1CC(c2ccccc2)CC(=O)C1=CNCCN1CCN(CCO)CC1 (stereo not drawn) [Compound 8, 2-(((2-(4-(2-hydroxyethyl)piperazin-1-yl)ethyl)amino)methylene)-5-phenylcyclohexane-1,3-dione] | < 3 µM | –
O=C1C(=CNCCN2CCN(CCO)CC2)C(=O)c2ccccc21 [Compound 9, 2-(((2-(4-(2-hydroxyethyl)piperazin-1-yl)ethyl)amino)methylene)-1H-indene-1,3(2H)-dione] | 100 to 1000 µM | –
CN1C(=O)C(=CNCCN2CCN(CCO)CC2)C(=O)N(C)C1=O [Compound 10, 5-(((2-(4-(2-hydroxyethyl)piperazin-1-yl)ethyl)amino)methylene)-1,3-dimethylpyrimidine-2,4,6(1H,3H,5H)-trione] | – | 100 to 1000 µM
O=C1CCCC(=O)C1=CNCCN1CCN(CCO)CC1 [Compound 11, 2-(((2-(4-(2-hydroxyethyl)piperazin-1-yl)ethyl)amino)methylene) cyclohexane-1,3-dione] | 100 to 1000 µM | –
O=C1COCC(=O)C1=CNCCN1CCN(CCO)CC1 [Compound 12, 4-(((2-(4-(2-hydroxyethyl)piperazin-1-yl)ethyl)amino)methylene)-2H-pyran-3,5(4H,6H)-dione] | 100 to 1000 µM | –
CC1CC(=O)C(=CNCCN2CCN(CCO)CC2)C(=O)C1 (stereo not drawn) [Compound 14, 2-(((2-(4-(2-hydroxyethyl)piperazin-1-yl)ethyl)amino)methylene)-5-methylcyclohexane-1,3-dione] | 100 to 1000 µM | –
COc1cc(OC)c2c(c1Cl)O[C@@]1(C(=O)/C(=C\NCCN3CCN(CCO)CC3)C(=O)C[C@H]1C)C2=O [Compound 15, (2R,6′R)-7-chloro-3′-(((2-(4-(2-hydroxyethyl)piperazin-1-yl)ethyl)amino)methylene)-4,6-dimethoxy-6′-methyl-3H-spiro[benzofuran-2,1′-cyclohexane]-2′,3,4′-trione] | 3 to 15 µM | –
O=C1CC(c2ccnc3[nH]ccc23)CC(=O)C1=CNCCN1CCN(CCO)CC1 (stereo not drawn) [Compound 17, 2-(((2-(4-(2-hydroxyethyl)piperazin-1-yl)ethyl)amino)methylene)-5-(1H-pyrrolo[2,3-b]pyridin-4-yl)cyclohexane-1,3-dione] | 3 to 15 µM | –
O=C1CC(c2c[nH]c3ncccc23)CC(=O)C1=CNCCN1CCN(CCO)CC1 (stereo not drawn) [Compound 18, 2-(((2-(4-(2-hydroxyethyl)piperazin-1-yl)ethyl)amino)methylene)-5-(1H-pyrrolo[2,3-b]pyridin-3-yl)cyclohexane-1,3-dione] | 3 to 15 µM | –
COCCn1ccc2c(C3CC(=O)C(=CNCCN4CCN(CCO)CC4)C(=O)C3)ccnc21 (stereo not drawn) [Compound 19, 2-(((2-(4-(2-hydroxyethyl)piperazin-1-yl)ethyl)amino)methylene)-5-(1-(2-methoxyethyl)-1H-pyrrolo[2,3-b]pyridin-4-yl)cyclohexane-1,3-dione] | 15 to 100 µM | –
O=C1CC(c2cnc3c(ccc4cccnc43)c2)CC(=O)C1=CNCCN1CCN(CCO)CC1 (stereo not drawn) [Compound 20, 2-(((2-(4-(2-hydroxyethyl)piperazin-1-yl)ethyl)amino)methylene)-5-(1,10-phenanthrolin-3-yl)cyclohexane-1,3-dione] | 100 to 1000 µM | –
O=C1CC(c2ccc(Sc3ccccc3)cc2)CC(=O)C1=CNCCN1CCN(CCO)CC1 (stereo not drawn) [Compound 21, 2-(((2-(4-(2-hydroxyethyl)piperazin-1-yl)ethyl)amino)methylene)-5-(4-(phenylthio)phenyl) cyclohexane-1,3-dione] | 15 to 100 µM | –
Cn1nnc(-c2ccc(C3CC(=O)C(=CNCCN4CCN(CCO)CC4)C(=O)C3)cc2)n1 (stereo not drawn) [Compound 22, 2-(((2-(4-(2-hydroxyethyl)piperazin-1-yl)ethyl)amino)methylene)-5-(4-(2-methyl-2H-tetrazol-5-yl)phenyl) cyclohexane-1,3-dione] | 100 to 1000 µM | –
COc1cc(C2CC2)c(C2CC(=O)C(=CNCCN3CCN(CCO)CC3)C(=O)C2)cc1OC (stereo not drawn) [Compound 23, 5-(2-cyclopropyl-4,5-dimethoxyphenyl)-2-(((2-(4-(2-hydroxyethyl)piperazin-1-yl)ethyl)amino)methylene) cyclohexane-1,3-dione] | 3 to 15 µM | –

Compound | IC50 [1] | IC50
O=C1CC(c2c[nH]c3cccc(F)c23)CC(=O)C1=CNCCN1CCN(CCO)CC1 (stereo not drawn) [Compound 24, 5-(4-fluoro-1H-indol-3-yl)-2-(((2-(4-(2-hydroxyethyl)piperazin-1-yl)ethyl)amino)methylene) cyclohexane-1,3-dione] | < 3 µM | –
O=C1CC(c2cnc3c(N4CCOCC4)nccn23)CC(=O)C1=CNCCN1CCN(CCO)CC1 (stereo not drawn) [Compound 25, 2-(((2-(4-(2-hydroxyethyl)piperazin-1-yl)ethyl)amino)methylene)-5-(8-morpholinoimidazo [1,2-a]pyrazin-3-yl) cyclohexane-1,3-dione] | 100 to 1000 µM | –
COc1cc2ncnc(C3CC(=O)C(=CNCCN4CCN(CCO)CC4)C(=O)C3)c2cc1OC (stereo not drawn) [Compound 26, 5-(6,7-dimethoxyquinazolin-4-yl)-2-(((2-(4-(2-hydroxyethyl)piperazin-1-yl)ethyl)amino)methylene) cyclohexane-1,3-dione] | 15 to 100 µM | –
O=C1CC(c2ncnc3sccc23)CC(=O)C1=CNCCN1CCN(CCO)CC1 (stereo not drawn) [Compound 27, 2-(((2-(4-(2-hydroxyethyl)piperazin-1-yl)ethyl)amino)methylene)-5-(thieno[2,3-d]pyrimidin-4-yl)cyclohexane-1,3-dione] | 15 to 100 µM | –
Cc1ccccc1C1CC(=O)C(=CNCCN2CCN(CCO)CC2)C(=O)C1 (stereo not drawn) [Compound 28, 2-(((2-(4-(2-hydroxyethyl)piperazin-1-yl)ethyl)amino)methylene)-5-(o-tolyl)cyclohexane-1,3-dione] | 3 to 15 µM | –
CC1(c2ccccc2)CC(=O)C(=CNCCN2CCN(CCO)CC2)C(=O)C1 (stereo not drawn) [Compound 29, 2-(((2-(4-(2-hydroxyethyl)piperazin-1-yl)ethyl)amino)methylene)-5-methyl-5-phenylcyclohexane-1,3-dione] | 100 to 1000 µM | –
CC1(C)O[C@@H]2[C@H](O1)[C@@H](C1CC(=O)C(=CNCCN3CCN(CCO)CC3)C(=O)C1)O[C@H]2n1cnc2c(N3CCOCC3)ncnc21 (stereo partly drawn) [Compound 30, 5-((3aR,4R,6R,6aR)-2,2-dimethyl-6-(6-morpholino-9H-purin-9-yl)tetrahydrofuro[3,4-d][1,3]dioxol-4-yl)-2-(((2-(4-(2-hydroxyethyl)piperazin-1-yl)ethyl)amino)methylene) cyclohexane-1,3-dione] | 100 to 1000 µM | –
O=C1CC(COc2ccccc2)CC(=O)C1=CNCCN1CCN(CCO)CC1 (stereo not drawn) [Compound 31, 2-(((2-(4-(2-hydroxyethyl)piperazin-1-yl)ethyl)amino)methylene)-5-(phenoxymethyl) cyclohexane-1,3-dione] | 3 to 15 µM | –
O=C1CC(COc2cccc(F)c2)CC(=O)C1=CNCCN1CCN(CCO)CC1 (stereo not drawn) [Compound 32, 5-((3-fluorophenoxy)methyl)-2-(((2-(4-(2-hydroxyethyl)piperazin-1-yl)ethyl)amino)methylene) cyclohexane-1,3-dione] | 3 to 15 µM | –
O=C1CC(c2ccc(-c3ncnc4[nH]cnc34)cc2)CC(=O)C1=CNCCN1CCN(CCO)CC1 (stereo not drawn) [Compound 33, 5-(4-(9H-purin-6-yl)phenyl)-2-(((2-(4-(2-hydroxyethyl)piperazin-1-yl)ethyl)amino)methylene)cyclohexane-1,3-dione] | 15 to 100 µM | –
COCCOCCOc1cccc(C2CC(=O)C(=CNCCN3CCN(CCO)CC3)C(=O)C2)c1 (stereo not drawn) [Compound 34, 2-(((2-(4-(2-hydroxyethyl)piperazin-yl)ethyl)amino)methylene)-5-(3-(2-(2-methoxyethoxy)ethoxy)phenyl)cyclohexane-1,3-dione] | < 3 µM | –
O=C1CC(c2ccc(N3CCOCC3)cc2)CC(=O)C1=CNCCN1CCN(CCO)CC1 (stereo not drawn) [Compound 35, 2-(((2-(4-(2-hydroxyethyl)piperazin-1-yl)ethyl)amino)methylene)-5-(4-morpholinophenyl) cyclohexane-1,3-dione] | 15 to 100 µM | –
CN1CCN(c2ccc(C3CC(=O)C(=CNCCN4CCN(CCO)CC4)C(=O)C3)cc2)CC1 (stereo not drawn) [Compound 36, 2-(((2-(4-(2-hydroxyethyl)piperazin-1-yl)ethyl)amino)methylene)-5-(4-(4-methylpiperazin-1-yl)phenyl) cyclohexane-1,3-dione] | 100 to 1000 µM | –
O=C1CC(c2cccs2)CC(=O)C1=CNCCN1CCN(CCO)CC1 (stereo not drawn) [Compound 37, 2-(((2-(4-(2-hydroxyethyl)piperazin-1-yl)ethyl)amino)methylene)-5-(thiophen-2-yl) cyclohexane-1,3-dione] | < 3 µM | –
O=C1CC(c2c[nH]c3ccccc23)CC(=O)C1=CNCCN1CCN(CCO)CC1 (stereo not drawn) [Compound 39, 2-(((2-(4-(2-hydroxyethyl)piperazin-1-yl)ethyl)amino)methylene)-5-(1H-indol-3-yl) cyclohexane-1,3-dione] | < 3 µM | –
O=C1CC(c2ccc(O)cc2)CC(=O)C1=CNCCN1CCN(CCO)CC1 (stereo not drawn) [Compound 40, 2-(((2-(4-(2-hydroxyethyl)piperazin-1-yl)ethyl)amino)methylene)-5-(4-hydroxyphenyl) cyclohexane-1,3-dione] | < 3 µM | –
COCCOCCOc1ccccc1C1CC(=O)C(=CNCCN2CCN(CCO)CC2)C(=O)C1 (stereo not drawn) [Compound 41] | 3 to 15 µM | –
COCCOc1ccccc1C1CC(=O)C(=CNCCN2CCN(CCO)CC2)C(=O)C1 (stereo not drawn) [Compound 42, 2-(((2-(4-(2-hydroxyethyl)piperazin-1-yl)ethyl)amino)methylene)-5-(2-(2-methoxyethoxy)phenyl) cyclohexane-1,3-dione] | 3 to 15 µM | –

From patent publication US11319303B2 (WIGEN BIOMEDICINE TECHNOLOGY (SHANGHAI) CO., LTD., priority 2017, dated 2022)
